{
  "source": "patent US12404252B2",
  "about": "“Salt of 2-amino-2-(2-(1-decyl-1H-1,2,3-triazol-4-yl)ethyl)propane-1,3-diol, and pharmaceutical composition containing same” (NEXTGEN BIOSCIENCE CO., LTD, priority 2021, dated 2025)",
  "key": {"[1]": {"assay": "Standard stock solution stability, 40° C./75±5% RH", "type": "physicochemical", "conditions": "40° C./75% RH", "method": "The stability of the crystalline compound was examined at 40° C./75±5% RH. Physical stability was examined through comparative XRPD analysis before and after the test, and chemical stability was examined by HPLC method. The experimental conditions used in the stability test for Compound 1a and the test results are as follows.\n40° C./75±5% RH: Conditions in which the vial was open and upright.\n(§1) A required amount (˜1 mg) of solid material was dissolved in 1 mL of a diluent (1:1 methanol/water), and the prepared solution was analyzed by HPLC."}, "[2]": {"assay": "Standard stock solution stability, 60° C./75±5% RH", "type": "physicochemical", "conditions": "60° C./75% RH, Initial", "method": "The stability of the crystalline compound was under 60° C./75±5% RH conditions, and the purity thereof was examined by HPLC method. The experimental conditions used in the stability test for Compound 1a and the test results are as follows.\n60° C./75±5% RH: Conditions in which the vial was open and upright.\nas §1"}, "[3]": {"assay": "pH stability and salinity stability, 40±2° C.", "type": "physicochemical", "method": "pH and salinity stability tests for the hemifumirate salt of Compound 1 were performed at an initial target concentration of 2 mg/mL. The pH and salinity stability conditions used to evaluate the hemifumirate salt of Compound 1 and the evaluation results are as follows.\n• 40±2° C.: Conditions in which the vial was capped and upright • Storage container for stability: 2-mL screw neck clear glass vial (manufactured by La-Pha-Pack) • Target concentration: ˜ 2 mg/mL (adding the sample to 1 mL of medium, followed by vortexing for 30 seconds) • 500 μL of the test mixture was dissolved in 500 μL of a diluent (1:1 methanol/water), and the prepared solution was analyzed by HPLC without filtration."}, "[4]": {"assay": "Oxidation stability test (30% H2O2)", "type": "physicochemical"}, "[5]": {"system": "dextran sulfate sodium (DSS)-induced colitis model", "assay": "DSS-induced colitis mouse model, disease activity index", "type": "in vivo", "conditions": "DSS mice", "method": "The effectiveness of Compound 1a against inflammatory bowel disease was evaluated using the dextran sulfate sodium (DSS)-induced colitis model. In the mouse model, inflammatory bowel disease was induced by administering DSS to mice at a concentration of 2.5% via drinking water. Mice were divided into a test group administered Compound 1a, a positive control group administered ozanimod or MTX (methotrexate), a vehicle group, and a normal control group, and each group had n=10. Compound 1, a compound of the present invention, was orally administered at doses of 5 and 10 mg/kg once a day for 7 days to the inflammatory bowel disease-induced model, and ozanimod as a positive control was administered orally at a dose of 5 mg/kg once a day, and MTX (methotrexate) as a positive control was administered intraperitoneally at a dose of 3 mg/kg three times a week.\nDAI represents the total score of weight loss relative to initial weight, stool consistency, and degree of intestinal bleeding of the mouse. The criteria for calculation of DAI are shown in Table 10 below, and DAI was evaluated on days 0, 1, 2, 3, 4, 5, 6, 7, and 8."}, "[6]": {"assay": "Effect on cardiovascular system in beagle dogs (telemetry)", "type": "in vivo", "conditions": "oral 12.5, 25, and 50 mg/kg", "method": "Compound 1a was orally administered to four non-anesthetized and unrestrained male beagle dogs implanted with remote transmitters. Next, the heart rates of the four beagle dogs were measured to evaluate the effect of Compound 1a on the cardiovascular system, and whether abnormal symptoms occurred was visually checked.\nIn this experiment, the test substance was administered to each of the four beagle dogs in four steps. In the first administration step (0 mg/kg of Compound 1a), 0.5% MC aqueous solution as control vehicle was administered, and in the second administration step, 12.5 mg/kg of Compound 1a was administered. In the third administration step, 25 mg/kg of Compound 1a was administered, and in the fourth administration step, 50 mg/kg of Compound 1a was administered. The first to fourth administrations were performed at one-week intervals. Additionally, 0 hour before administration of the test substance, and 0.5 hours, 1 hour, 2 hours, 3 hours, 4 hours, 6 hours, 8 hours, 12 hours, and 24 hours after administration of the test substance, the heart rates of the beagle dogs were measured."}, "[7]": {"system": "unilateral ureteral obstruction (UUO) model", "assay": "Unilateral ureteral obstruction (UUO) renal fibrosis model", "type": "in vivo", "conditions": "UUO mice, 2 weeks", "method": "The antifibrotic effect of Compound 1a in renal disease was evaluated using the unilateral ureteral obstruction (UUO) model, which is a renal fibrotic disease model. Kidney fibrosis was induced by unilateral ureteral obstruction of mice, and then Compound 1a at 10, 30, and 90 mg/kg/day and the positive control substance telmisartan at 30 mg/kg/day were orally administered to the mice once a day for 2 weeks."}, "[8]": {"system": "adenine-induced chronic kidney disease model", "assay": "Adenine-induced chronic kidney disease model", "type": "in vivo", "conditions": "adenine-induced CKD mice, 3 weeks", "method": "The antifibrotic effect of Compound 1a was evaluated using an adenine-induced chronic kidney disease model. 0.5% adenine (in 0.5% CMC) was orally administered to mice for 4 weeks to induce chronic kidney disease, and Compound 1a at 10, 30, and 90 mg/kg/day and the positive control substance telmisartan 10 mg/kg/day were administered orally to the mice for 3 weeks, followed by measurement of serum creatinine, serum BUN, and kidney hydroxyproline, and histopathology. In addition, the tubular-interstitial index value was determined based on the above measurement results."}, "[9]": {"system": "alopecia areata model (C3H/HeJ)", "assay": "Alopecia areata model (C3H/HeJ)", "type": "in vivo", "conditions": "C3H/HeJ mice, 30 mg/kg orally, 12 weeks", "method": "The efficacy of Compound 1a against alopecia areata was evaluated using a model (C3H/HeJ) with spontaneous alopecia areata. The C3H/HeJ mice used in the test are animals that spontaneously develop alopecia areata with increasing age. […] 30 mg/kg of Compound 1a was administered orally to the mice for 12 weeks, and then disease-free ratio and AA lesion area were measured."}, "[10]": {"biological_target": "hERG potassium ion channel (Homo sapiens, UniProt Q12809)", "sequence (Q12809 whole entry)": "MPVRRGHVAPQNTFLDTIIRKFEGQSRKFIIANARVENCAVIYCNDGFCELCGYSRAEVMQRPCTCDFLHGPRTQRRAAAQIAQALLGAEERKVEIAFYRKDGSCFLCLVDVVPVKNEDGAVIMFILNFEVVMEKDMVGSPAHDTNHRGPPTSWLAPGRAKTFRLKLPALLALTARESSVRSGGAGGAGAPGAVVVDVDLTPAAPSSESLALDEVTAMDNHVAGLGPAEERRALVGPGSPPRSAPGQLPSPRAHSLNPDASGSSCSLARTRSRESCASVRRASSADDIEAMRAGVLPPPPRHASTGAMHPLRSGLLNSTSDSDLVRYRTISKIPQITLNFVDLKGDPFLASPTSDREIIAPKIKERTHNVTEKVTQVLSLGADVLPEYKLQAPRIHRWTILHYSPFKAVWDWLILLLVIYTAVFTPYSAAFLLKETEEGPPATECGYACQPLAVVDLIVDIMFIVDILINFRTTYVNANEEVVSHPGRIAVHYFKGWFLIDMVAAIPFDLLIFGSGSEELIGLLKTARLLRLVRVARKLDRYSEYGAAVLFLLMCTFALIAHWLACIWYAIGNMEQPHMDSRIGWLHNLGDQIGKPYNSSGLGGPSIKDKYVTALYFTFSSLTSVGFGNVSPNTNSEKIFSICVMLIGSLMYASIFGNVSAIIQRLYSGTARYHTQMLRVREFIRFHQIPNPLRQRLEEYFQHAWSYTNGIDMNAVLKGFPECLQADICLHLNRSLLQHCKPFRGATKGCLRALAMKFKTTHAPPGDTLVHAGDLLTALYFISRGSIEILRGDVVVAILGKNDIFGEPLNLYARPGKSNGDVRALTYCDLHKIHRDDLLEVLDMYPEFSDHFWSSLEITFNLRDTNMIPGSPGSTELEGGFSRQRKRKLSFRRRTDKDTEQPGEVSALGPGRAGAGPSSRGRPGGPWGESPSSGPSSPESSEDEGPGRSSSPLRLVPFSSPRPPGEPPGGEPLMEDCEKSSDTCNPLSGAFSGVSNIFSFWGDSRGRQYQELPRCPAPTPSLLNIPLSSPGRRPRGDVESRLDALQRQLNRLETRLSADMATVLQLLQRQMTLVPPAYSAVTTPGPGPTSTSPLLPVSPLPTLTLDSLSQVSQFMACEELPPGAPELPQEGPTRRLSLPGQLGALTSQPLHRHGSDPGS"}},
  "note": "Entries after “also recorded” stand apart in the source; their conditions may differ.",
  "data": [
    {"smiles": "CCCCCCCCCCn1cc(CCC(N)(CO)CO)nn1", "note": "[Compound 1a, 2-amino-2-(2-(1-decyl-1H-1,2,3-triazol-4-yl)ethyl) propane-1,3-diol]", "values": [
      {"measurement": "Purity %", "setting": "[1]; 1-week", "value": 99.18, "unit": "%"},
      {"measurement": "XRPD (physical stability)", "setting": "[1]; 1-week", "value": "Almost similar (some changes"},
      {"measurement": "XRPD (physical stability)", "setting": "[1]; 2-week", "value": "crystalline form was maintained; also recorded: Almost similar (some changes"},
      {"measurement": "Purity %", "setting": "[1]; Initial", "value": 99.29, "unit": "%"},
      {"measurement": "XRPD (physical stability)", "setting": "[1]; Initial", "value": "Crystalline"},
      {"measurement": "Purity %", "setting": "[2]", "value": 99.11, "unit": "%"},
      {"measurement": "Purity %", "setting": "[3]; SGF/40° C., 1-week", "value": 99.25, "unit": "%"},
      {"measurement": "Purity %", "setting": "[3]; SGF/40° C., 2-week", "value": 99.29, "unit": "%"},
      {"measurement": "Purity %", "setting": "[3]; SGF/40° C., Initial", "value": 99.13, "unit": "%"},
      {"measurement": "Purity %", "setting": "[3]; Saline (0.9% NaCl)/40° C., 1-week", "value": 99.05, "unit": "%"},
      {"measurement": "Purity %", "setting": "[3]; Saline (0.9% NaCl)/40° C., Initial", "value": 99.20, "unit": "%"},
      {"measurement": "Purity %", "setting": "[3]; pH 1.2 HCl buffer/40° C., 1-week", "value": 98.26, "unit": "%"},
      {"measurement": "Purity %", "setting": "[3]; pH 1.2 HCl buffer/40° C., 2-week", "value": 98.76, "unit": "%"},
      {"measurement": "Purity %", "setting": "[3]; pH 1.2 HCl buffer/40° C., Initial", "value": 98.92, "unit": "%"},
      {"measurement": "Purity %", "setting": "[3]; pH 4.7 acetate buffer/40° C., 1-week", "value": 99.46, "unit": "%"},
      {"measurement": "Purity %", "setting": "[3]; pH 4.7 acetate buffer/40° C., 2-week", "value": 99.69, "unit": "%"},
      {"measurement": "Purity %", "setting": "[3]; pH 4.7 acetate buffer/40° C., Initial", "value": 99.23, "unit": "%"},
      {"measurement": "Purity %", "setting": "[3]; pH 6.8 phosphate buffer/40° C., 1-week", "value": 98.36, "unit": "%"},
      {"measurement": "Purity %", "setting": "[3]; pH 6.8 phosphate buffer/40° C., Initial", "value": 99.20, "unit": "%"},
      {"measurement": "Purity %", "setting": "[4]; 30% H2O2 25° C. for 3 hours", "value": 99.50, "unit": "%"},
      {"measurement": "Purity %", "setting": "[4]; 30% H2O2 25° C. for 24 hours", "value": 94.30, "unit": "%"},
      {"measurement": "clinical indicators (weight loss, stool consistency, intestinal bleeding) versus ozanimod", "setting": "[5]; 5 mg/kg orally", "value": "equivalent to or higher than those of ozanimod"},
      {"measurement": "clinical indicators (weight loss, stool consistency, intestinal bleeding) versus ozanimod", "setting": "[5]; 10 mg/kg orally", "value": "equivalent to or higher than those of ozanimod"},
      {"measurement": "general symptoms (visual observation)", "setting": "[6]", "value": "no abnormal symptoms were observed"},
      {"measurement": "heart rate", "setting": "[6]; up to 24 hours", "value": "no change in the heart rate"},
      {"measurement": "Kidney hydroxyproline", "setting": "[7]; 10 mg/kg/day orally", "value": "statistically significantly decreased"},
      {"measurement": "Kidney hydroxyproline", "setting": "[7]; 30 mg/kg/day orally", "value": "statistically significantly decreased"},
      {"measurement": "Kidney hydroxyproline", "setting": "[7]; 90 mg/kg/day orally", "value": "statistically significantly decreased"},
      {"measurement": "Kidney hydroxyproline (second statement, 'in particular', p<0.05)", "setting": "[7]; 90 mg/kg/day orally", "value": "statistically significantly decreased"},
      {"measurement": "kidney hydroxyproline level compared to control group", "setting": "[8]; 30 mg/kg/day orally", "value": "statistically significantly decreased"},
      {"measurement": "kidney fibrosis (tubular-interstitial index)", "setting": "[8]; 90 mg/kg/day orally", "value": "statistically significantly decreased"},
      {"measurement": "serum BUN level", "setting": "[8]; 90 mg/kg/day orally", "value": "157.4 ± 32.3", "unit": "mg/dL"},
      {"measurement": "serum creatinine level", "setting": "[8]; 90 mg/kg/day orally", "value": "0.90 ± 0.12", "unit": "mg/dL"},
      {"measurement": "body weight versus control group", "setting": "[9]", "value": "no significant difference"},
      {"measurement": "days when 100% alopecia areata was observed", "setting": "[9]", "value": 84, "unit": "days"},
      {"measurement": "Hill coefficient", "setting": "[10]", "value": 1.527},
      {"measurement": "compensated suppression rate (%) of hERG channel currents", "setting": "[10]; 30 μM", "value": "82.62±7.31", "unit": "%"}
    ]}
  ]
}
